Test results as given in patent publication US11000033B2, “Ketone or oxime compound, and herbicide” (NISSAN CHEMICAL CORPORATION, priority 2014, dated 2021).

Columns and labels:
Assay type in all cases: in vivo
Setaria viridis = assay: Test Example 4: herbicidal effect by soil treatment (symbol G); conditions: for G (Setaria viridis) herbicidal effect grade: application herbicide amount 320 g/ha; for G: Setaria viridis, herbicidal effect grade: 320 g/ha
Procedure, shortened: (§1)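 Seeds were sown in sterilized diluvial soil, covered with about 1.5 cm of soil, and the soil surface was sprayed with a water-diluted emulsion of the compound at a predetermined rate. Plants grew in a greenhouse at 25° C. to 30° C.; effects were scored visually 3 weeks after application.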

Monochoria vaginalis = assay: Test Example 1: herbicidal activity, application before weed generation in submerged conditions (symbol C); conditions: application herbicide amount 320 g/ha
Procedure, shortened: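 0–5 visual score, 3 wk post-application. Submerged pots, alluvial soil, water 4 cm; seeds sown mixed, rice at 2.5 leaves transplanted. Emulsion diluted to predetermined dose, applied to water surface at sowing. 25–30 °C greenhouse.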

transplanted rice plant = assay: Test Example 1: effect on crop, application before weed generation in submerged conditions (symbol a); conditions: application herbicide amount 320 g/ha
Procedure, shortened: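 Alluvial soil pots flooded to 4 cm water, sown with Echinochloa oryzacola, Scirpus juncoides and Monochoria vaginalis, then transplanted with 2.5 leaf stage rice seedlings; pre-emergence application. Greenhouse 25° C. to 30° C.; scored 0–5 by herbicidal ratio 3 weeks after application.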

rapeseed = assay: Test Example 5: effect on crop by foliage application, plastic box (symbol g); conditions: 320 g/ha, 3 weeks after application
Procedure, shortened: (§2)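 Diluvial soil, sterilized and boxed (21 × 13 × 7 cm), received spot-sown seed covered by about 1.5 cm soil; plants were then greenhouse-grown at 25–30° C.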

Lolium multiflorum Lam. = assay: Test Example 5: herbicidal effect by foliage application, plastic box (symbol K); conditions: 320 g/ha, 3 weeks after application
Procedure, shortened: (§3)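 After sowing into sterilized diluvial soil and growing two weeks under glass at 25° C. to 30° C., seedlings receive a uniform foliar spray of diluted emulsion. Damage is judged visually three weeks on.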

Galium spurium = assay: Test Example 4: herbicidal effect by soil treatment (symbol Q); conditions: for Q (Galium spurium) herbicidal effect grade: application herbicide amount 320 g/ha; for Q: Galium spurium, herbicidal effect grade: 320 g/ha
Procedure, shortened: as §1

Avena fatua = assay: Test Example 4: herbicidal effect by soil treatment (symbol I); conditions: for I (Avena fatua) herbicidal effect grade: application herbicide amount 320 g/ha; for I: Avena fatua, herbicidal effect grade: 320 g/ha
Procedure, shortened: as §1

Abutilon theophrasti = assay: Test Example 5: herbicidal effect by foliage application, plastic box (symbol M); conditions: 320 g/ha, 3 weeks after application
Procedure, shortened: as §3

Amaranthus retroflexus = assay: Test Example 5: herbicidal effect by foliage application, plastic box (symbol N); conditions: 320 g/ha, 3 weeks after application
Procedure, shortened: as §3

Chenopodium album [1] = assay: Test Example 5: herbicidal effect by foliage application, plastic box (symbol O); conditions: 320 g/ha, 3 weeks after application
Procedure, shortened: as §3

corn = assay: Test Example 5: effect on crop by foliage application, plastic box (symbol c); conditions: 320 g/ha, 3 weeks after application
Procedure, shortened: as §2

Alopecurus myosuroides = assay: Test Example 4: herbicidal effect by soil treatment (symbol J); conditions: for J (Alopecurus myosuroides) herbicidal effect grade: application herbicide amount 320 g/ha; for J: Alopecurus myosuroides, herbicidal effect grade: 320 g/ha
Procedure, shortened: as §1

Chenopodium album [2] = assay: Test Example 4: herbicidal effect by soil treatment (symbol O); conditions: application herbicide amount 320 g/ha
Procedure, shortened: as §1

Apera spica-venti = assay: Test Example 4: herbicidal effect by soil treatment (symbol L); conditions: for L (Apera spica-venti) herbicidal effect grade: application herbicide amount 320 g/ha; for L: Apera spica-venti, herbicidal effect grade: 320 g/ha
Procedure, shortened: as §1

Leptochloa chinensis = assay: Test Example 3: herbicidal effect by foliage application, Wagner pot (symbol D); conditions: application herbicide amount 320 g/ha
Procedure, shortened: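 Rating at 3 weeks post-spray, by defined criteria. Treatment: emulsion diluted with water to a predetermined amount, applied evenly to foliage of 14-day-old plants raised in alluvial soil flooded 0.1–0.5 cm deep at 25–30 °C, rice co-sown.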

[3] = tested on: Echinochloa crus-galli var. crus-galli; assay: Test Example 5: herbicidal effect by foliage application, plastic box (symbol H); conditions: 320 g/ha, 3 weeks after application
Procedure, shortened: as §3

Stellaria media [4] = assay: Test Example 4: herbicidal effect by soil treatment (symbol P); conditions: for P: Stellaria media, herbicidal effect grade: 320 g/ha
Procedure, shortened: as §1

Veronica persica = assay: Test Example 4: herbicidal effect by soil treatment (symbol R); conditions: for R: Veronica persica, herbicidal effect grade: 320 g/ha
Procedure, shortened: as §1

Stellaria media [5] = assay: Test Example 5: herbicidal effect by foliage application, plastic box (symbol P); conditions: 320 g/ha, 3 weeks after application
Procedure, shortened: as §3

[6] = application herbicide amount 320 g/ha

Structure (SMILES)	G (Setaria viridis) herbicidal effect grade (Setaria viridis)	Herbicidal effect grade, C: Monochoria vaginalis (Monochoria vaginalis)	Effect grade on crop, a: transplanted rice plant (transplanted rice plant)	g: rapeseed, effect on crop grade (rapeseed)	K: Lolium multiflorum Lam., herbicidal effect grade (Lolium multiflorum Lam.)	Q (Galium spurium) herbicidal effect grade (Galium spurium)	I (Avena fatua) herbicidal effect grade (Avena fatua)	M: Abutilon theophrasti, herbicidal effect grade (Abutilon theophrasti)	N: Amaranthus retroflexus, herbicidal effect grade (Amaranthus retroflexus)	O: Chenopodium album, herbicidal effect grade (Chenopodium album [1])	c: corn, effect on crop grade (corn)	J (Alopecurus myosuroides) herbicidal effect grade (Alopecurus myosuroides)	L (Apera spica-venti) herbicidal effect grade (Apera spica-venti)	herbicidal effect on D (Leptochloa chinensis), grade 0-5 (Leptochloa chinensis)	H: Echinochloa crus-galli var. crus-galli, herbicidal effect grade [3]	G: Setaria viridis, herbicidal effect grade (Setaria viridis)	P: Stellaria media, herbicidal effect grade (Stellaria media [4])	g: rapeseed, effect on crop (criteria 0-5) (rapeseed)	K: Lolium multiflorum Lam., herbicidal effect (criteria 0-5) (Lolium multiflorum Lam.)	Q: Galium spurium, herbicidal effect grade (Galium spurium)	further results
CON=C(C)CC1CC(OC(=O)C(C)(C)OC(C)=O)=C(c2c(C)cc(C)cc2C)C1=O (stereo not shown) [1-034]	5 (Herbicidal ratio of 90% or more (almost completely withered))	2 (Herbicidal ratio of 20% or higher and lower than 40%)	5 (Herbicidal ratio of 90% or more (almost completely withered))	5 (Herbicidal ratio of 90% or more (almost completely withered))	5 (Herbicidal ratio of 90% or more (almost completely withered))	4 (Herbicidal ratio of 70% or higher and lower than 90%)	5 (Herbicidal ratio of 90% or more (almost completely withered))	4 (Herbicidal ratio of 70% or higher and lower than 90%)	3 (Herbicidal ratio of 40% or higher and lower than 70%)	5 (Herbicidal ratio of 90% or more (almost completely withered))	4 (Herbicidal ratio of 70% or higher and lower than 90%)	5 (Herbicidal ratio of 90% or more (almost completely withered))	5 (Herbicidal ratio of 90% or more (almost completely withered))	5 (Herbicidal ratio of 90% or more (almost completely withered))	5 (Herbicidal ratio of 90% or more (almost completely withered))	–	–	–	–	–	O (Chenopodium album) herbicidal effect grade (Chenopodium album [2]): 5 (Herbicidal ratio of 90% or more (almost completely withered))
CON=C(C)CC1CC(OC(=O)C=Cc2ccco2)=C(c2c(C)cc(C)cc2C)C1=O (stereo not shown) [1-091]	–	0 (Herbicidal ratio of 5% or lower (almost no effect))	4 (Herbicidal ratio of 70% or higher and lower than 90%)	–	–	–	–	–	–	–	–	–	–	5 (Herbicidal ratio of 90% or more (almost completely withered))	–	5 (Herbicidal ratio of 90% or more (almost completely withered))	0 (Herbicidal ratio of 5% or lower (almost no effect))	4 (Herbicidal ratio of 70% or higher and lower than 90%)	5 (Herbicidal ratio of 90% or more (almost completely withered))	0 (Herbicidal ratio of 5% or lower (almost no effect))	I: Avena fatua, herbicidal effect grade (Avena fatua): 3 (Herbicidal ratio of 40% or higher and lower than 70%); M: Abutilon theophrasti, herbicidal effect (criteria 0-5) (Abutilon theophrasti): 4 (Herbicidal ratio of 70% or higher and lower than 90%); R: Veronica persica, herbicidal effect grade (Veronica persica): 0 (Herbicidal ratio of 5% or lower (almost no effect)); N: Amaranthus retroflexus, herbicidal effect (criteria 0-5) (Amaranthus retroflexus): 3 (Herbicidal ratio of 40% or higher and lower than 70%); O: Chenopodium album, herbicidal effect (criteria 0-5) (Chenopodium album [1]): 0 (Herbicidal ratio of 5% or lower (almost no effect)); c: corn, effect on crop (criteria 0-5) (corn): 5 (Herbicidal ratio of 90% or more (almost completely withered)); J: Alopecurus myosuroides, herbicidal effect grade (Alopecurus myosuroides): 5 (Herbicidal ratio of 90% or more (almost completely withered)); P: Stellaria media, herbicidal effect (criteria 0-5) (Stellaria media [5]): 0 (Herbicidal ratio of 5% or lower (almost no effect)); L: Apera spica-venti, herbicidal effect grade (Apera spica-venti): 5 (Herbicidal ratio of 90% or more (almost completely withered)); H: Echinochloa crus-galli var. crus-galli, herbicidal effect (criteria 0-5) [3]: 5 (Herbicidal ratio of 90% or more (almost completely withered))
CON=C(C)CC1CC(OC(=O)C(C)Oc2ccc(Oc3cnc4cc(Cl)ccc4n3)cc2)=C(c2c(C)cc(C)cc2C)C1=O (stereo not shown) [1-087]	–	1 (Herbicidal ratio of 5% or higher and lower than 20%)	5 (Herbicidal ratio of 90% or more (almost completely withered))	–	–	–	–	–	–	–	–	–	–	5 (Herbicidal ratio of 90% or more (almost completely withered))	–	5 (Herbicidal ratio of 90% or more (almost completely withered))	0 (Herbicidal ratio of 5% or lower (almost no effect))	4 (Herbicidal ratio of 70% or higher and lower than 90%)	5 (Herbicidal ratio of 90% or more (almost completely withered))	0 (Herbicidal ratio of 5% or lower (almost no effect))	I: Avena fatua, herbicidal effect grade (Avena fatua): 3 (Herbicidal ratio of 40% or higher and lower than 70%); M: Abutilon theophrasti, herbicidal effect (criteria 0-5) (Abutilon theophrasti): 5 (Herbicidal ratio of 90% or more (almost completely withered)); R: Veronica persica, herbicidal effect grade (Veronica persica): 0 (Herbicidal ratio of 5% or lower (almost no effect)); N: Amaranthus retroflexus, herbicidal effect (criteria 0-5) (Amaranthus retroflexus): 4 (Herbicidal ratio of 70% or higher and lower than 90%); O: Chenopodium album, herbicidal effect (criteria 0-5) (Chenopodium album [1]): 0 (Herbicidal ratio of 5% or lower (almost no effect)); c: corn, effect on crop (criteria 0-5) (corn): 5 (Herbicidal ratio of 90% or more (almost completely withered)); J: Alopecurus myosuroides, herbicidal effect grade (Alopecurus myosuroides): 5 (Herbicidal ratio of 90% or more (almost completely withered)); P: Stellaria media, herbicidal effect (criteria 0-5) (Stellaria media [5]): 3 (Herbicidal ratio of 40% or higher and lower than 70%); L: Apera spica-venti, herbicidal effect grade (Apera spica-venti): 5 (Herbicidal ratio of 90% or more (almost completely withered)); H: Echinochloa crus-galli var. crus-galli, herbicidal effect (criteria 0-5) [3]: 5 (Herbicidal ratio of 90% or more (almost completely withered))
CON=C(C)CC1CC(OC(=O)COc2cccc(OC)c2)=C(c2c(C)cc(C)cc2C)C1=O (stereo not shown) [1-068]	5 (Herbicidal ratio of 90% or more (almost completely withered))	3 (Herbicidal ratio of 40% or higher and lower than 70%)	5 (Herbicidal ratio of 90% or more (almost completely withered))	4 (Herbicidal ratio of 70% or higher and lower than 90%)	5 (Herbicidal ratio of 90% or more (almost completely withered))	0 (Herbicidal ratio of 5% or lower (almost no effect))	3 (Herbicidal ratio of 40% or higher and lower than 70%)	5 (Herbicidal ratio of 90% or more (almost completely withered))	4 (Herbicidal ratio of 70% or higher and lower than 90%)	1 (Herbicidal ratio of 5% or higher and lower than 20%)	5 (Herbicidal ratio of 90% or more (almost completely withered))	5 (Herbicidal ratio of 90% or more (almost completely withered))	5 (Herbicidal ratio of 90% or more (almost completely withered))	5 (Herbicidal ratio of 90% or more (almost completely withered))	5 (Herbicidal ratio of 90% or more (almost completely withered))	–	–	–	–	–	P (Stellaria media) herbicidal effect grade (Stellaria media [4]; [6]): 0 (Herbicidal ratio of 5% or lower (almost no effect)); R (Veronica persica) herbicidal effect grade (Veronica persica; [6]): 0 (Herbicidal ratio of 5% or lower (almost no effect)); P: Stellaria media, herbicidal effect grade (Stellaria media [5]): 3 (Herbicidal ratio of 40% or higher and lower than 70%)
